Assay results reported in US20260007624A1, “COMPOSITION FOR AMELIORATING OR TREATING CANCER CACHEXIA […] LACTATE AS ACTIVE INGREDIENT” (METIMEDI PHARMACEUTICALS CO., LTD., priority 2022, published 2026).
Several values for one entry are separate records, joined by “and”; a condition that tells them apart may be missing. Identical values can stand only once.

How the values were obtained:
[1] = tested on: colon cancer cell line HCT-116; assay: Cytotoxicity assay, colon cancer cells; assay type: cell-based; conditions: HCT-116, 48 hours, FIG. 2 lower panel
Description: 5×10^3 of normal colon fibroblast cell line CCD-18Co or colon cancer cell line HCT-116 were cultured in a 96-well plate at 37° C., 5% CO2. Incubator and observed under a microscope after 48 hours.

Hif-1α = assay: Western blot of Hif-1α expression in cancer cells; assay type: cell-based; conditions: for Hif-1α expression: hypoxia 1% O2, FIG. 4
Description: Then, Hif-1α antibody was diluted in TBST and attached to the protein on the membrane, washed with TBST, and treated with secondary antibody, and the band results were confirmed using X-ray film or Gel doc equipment.

[2] = Tissue pharmacokinetics (lactate concentration in muscle and tumor tissue); assay type: in vivo, Balb/c nude mice; conditions: HCT-116 tumor mice, 20 mg/kg S.C.
Description: Balb/c nude mice were obtained and 1×10^6 HCT-116 was implanted subcutaneously to grow tumors. […] Each obtained tissue was analyzed for changes in lactate concentration over time using a lactate analysis kit.

[3] = tested on: metastatic colorectal cancer refractory to standard therapy; assay: Phase II clinical trial of calcium lactate (cachexia, tumor response, survival, safety); assay type: in vivo, patients; design: key to Overall tumor response: SD means that tumor growth has stopped; PD means that the tumor has increased by 20% or more
Description: The clinical study was a phase II clinical trial targeting patients with metastatic colorectal cancer refractory to standard therapy.
Twenty-two patients were enrolled, and 16 completed the trial (see Table 1).
The administration method was subcutaneous injection, and the administration dose was 100 mg/day. One cycle consisted of 4 weeks of treatment with 5 days of I.P. administration subcutaneously once daily followed by 2 days of rest.
Tumor assessment was performed every 2 cycles compared to baseline.
The clinical outcomes were the primary outcome of disease control rate, and the secondary outcomes were overall survival, progression-free survival, and safety. Body weight was measured 1 month after the start of administration and expressed as the increase or decrease in body weight before and after administration. Tumor response was performed with a CT scan 2 months after the start of administration and expressed as the increase or decrease in tumor size before and after administration. SD means that tumor growth has stopped, and PD means that the tumor has increased by 20% or more.
BMI and Weight TO were measured at the screening visit, and Weight T1mo and SLD changes in the target lesion were measured 1 and 2 months after IP administration, respectively. SLD is an abbreviation for sum of longest diameters. SD and PD are abbreviations for stable disease and progressive disease, respectively.

[4] = 8 patients with weight loss including cachexia
[5] = of 16 patients who completed the trial

CC(O)C(=O)[O-].CC(O)C(=O)[O-].[Ca+2] (stereo not drawn) [calcium lactate]
effect on survival in colorectal cancer cells [1]: cancer cell death can be observed
Hif-1α expression (Hif-1α; AsPC-1 (pancreatic cancer)): reduced
Hif-1α expression (Hif-1α; H1975 (lung cancer)): reduced
Hif-1α expression (Hif-1α; HCT-116 (colon cancer)): reduced
Hif-1α expression (Hif-1α; MDA-MB-231 (breast cancer)): reduced
expression of Hif-1α protein (Hif-1α; colon cancer cells, hypoxia, FIG. 3 upper panel): reduced
concentration of lactate in muscle tissue [2]: no change
concentration of lactate in tumor tissues ([2]; 2 hours after administration): increases
efficacy of preventing patients from cachexia ([3]; 2 out of 16 patients progressed to cancerous cachexia): 87.5%
median overall survival ([3]; 8 patients with maintained or increased weight): 8 months
median increase in tumor size [3, 4]: 17%
median overall survival [3, 4]: 4.15 months
median increase in tumor size ([3]; 8 patients with weight maintenance or increase): 9.5%
disease control rate ([3]; 16 patients): 68.75%
drug efficacy for tumor growth arrest ([3]; 16 patients, metastatic stage): 68.8%
Overall survival ([3]; individual patient): 2.4 months and 4.4 months and 6 months and 14.9 months and 7.6 months and 2.7 months and 3.6 months and 7.9 months and 23 months and 8.1 months and 5.1 months and 6.3 months and 16.7 months and 25.8 months
SLD change at target lesions ([3]; individual patient, CT scan 2 months after start, RECIST 1.1): 12.5% and 10.8% and 15.7% and 12.6% and 9.1% and 34.7% and 17.7% and 29.0% and −2.9% and 129.2% and 3.3% and 15.6% and 10.0% and 18.4% and 2.2% and 6.2%
Overall tumor response ([3]; individual patient, RECIST 1.1): SD (11×) and PD (PD means that the tumor has increased by 20% or more) (5×)
Weight change ([3]; individual patient, screening to 1 month of treatment, 100 mg/day subcutaneous): 1.4% (3×) and −4.6% and 1.1% and 6.0% and −1.3% and −3.6% and 0.0% and −6.7% and −3.4% and 3.4% and −4.9% and 10.6% and −0.8%
Cachexia, % of patients [3, 5]: 12.5%
Cachexia, number of patients [3, 5]: 2
Weight gain (maintained or increased weight), number of patients [3, 5]: 8
Weight gain, % of patients [3, 5]: 50.0%
Weight loss (not corresponding to cachexia), number of patients [3, 5]: 6
Weight loss, % of patients [3, 5]: 37.5%
number of patients with stable disease ([3]; out of 16 patients): 11
DLT (dose limiting toxicity) ([3]; phase 2 clinical trials): Non-DLT
